Laboratory results as given in patent US12187662B2, “FOXM1 inhibitor compositions and methods of using the same” (The Board of Trustees of the University of Illinois, priority 2018, dated 2025).
“Also recorded” adds a separate entry of the source.

Tests used:
[1] = target: T1, FOXM1 protein (Homo sapiens, UniProt Q08050); assay: Direct binding of Fl-NB-72 to FOXM1 by tr-FRET; conditions: direct tr-FRET titration
T1 construct: a terbium donor was attached to purified full length FOXM1 through a streptavidin-biotin linker
T1 sequence (Q08050 1-763): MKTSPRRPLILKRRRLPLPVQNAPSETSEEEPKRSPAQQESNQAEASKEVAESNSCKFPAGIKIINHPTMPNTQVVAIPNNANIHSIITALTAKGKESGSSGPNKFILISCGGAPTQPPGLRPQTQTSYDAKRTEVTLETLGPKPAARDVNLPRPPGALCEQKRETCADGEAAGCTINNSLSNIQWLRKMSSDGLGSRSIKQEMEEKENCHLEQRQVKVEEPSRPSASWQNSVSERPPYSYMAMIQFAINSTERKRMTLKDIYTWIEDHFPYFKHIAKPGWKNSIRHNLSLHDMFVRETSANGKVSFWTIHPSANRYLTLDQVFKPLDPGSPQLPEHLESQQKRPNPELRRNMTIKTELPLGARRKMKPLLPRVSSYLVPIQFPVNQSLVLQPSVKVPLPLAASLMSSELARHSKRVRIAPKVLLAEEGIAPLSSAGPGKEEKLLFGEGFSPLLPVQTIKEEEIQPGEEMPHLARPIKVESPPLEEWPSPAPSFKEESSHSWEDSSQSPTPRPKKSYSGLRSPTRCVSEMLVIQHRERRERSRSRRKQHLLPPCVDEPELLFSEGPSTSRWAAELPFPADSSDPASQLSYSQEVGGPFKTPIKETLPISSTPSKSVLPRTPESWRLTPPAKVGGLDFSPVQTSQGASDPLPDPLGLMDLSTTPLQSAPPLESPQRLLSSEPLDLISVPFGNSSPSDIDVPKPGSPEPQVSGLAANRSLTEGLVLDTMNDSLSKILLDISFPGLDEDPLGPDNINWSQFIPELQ
Procedure: Direct binding experiments for determination of Kd for Fl-NB-72. […] The Biotin-FOXM1 was diluted to a concentration of 3×(5 nM+1.25 nM SaTb). 5 μL of each of these were mixed on a black Molecular Devices microtiter plate with 5 μL of FRET buffer, so that each component was diluted 3×. Each point was prepared in duplicate, mixed, and incubated for 1 h at room temperature, in the dark. tr-FRET was measured on a Victor X5 microtiter plate reader with settings as given above.

[2] = test system: MCF7 cells; assay: Cell proliferation assay (WST-1), MCF7; format: cell-based, human; conditions: inhibition of cell proliferation; read-out: IC50 MCF7
Procedure: (§1) All cells were tested for mycoplasma using Real-Time PCR Mycoplasma Detection Kit (Akron Biotech, Boca Raton, FL).
(§2) All assays were performed in triplicate.

[3] = test system: DT22 cells; assay: Cell proliferation assay (WST-1), DT22; format: cell-based, human; conditions: inhibition of cell proliferation; read-out: IC50 DT-22
Procedure: as §1, §2

[4] = target: T1, FOXM1 protein; assay: Competitive binding of inhibitors to FOXM1 by tr-FRET (Fl-NB-72 probe); conditions: tr-FRET competition with Fl-NB-72; Ki calculated from IC50 (Cheng-Prusoff)
Procedure: Competitive binding assays of FOXM1 inhibitor binding to FOXM1 by tr-FRET were conducted. All tr-FRET experiments used FRET buffer (20 mM Tris, pH 7.5, 50 mM NaCl, 0.01% NP-40 detergent, 10% glycerol) with 0.3 mg/ml ovalbumin and 0.1 mM butylated hydroxy-anisole added fresh daily. Solutions of the protein, fluorescent probe and inhibitor dilutions were prepared at 3× the final concentrations, the final dilution taking place as they were mixed together on the microtiter plate.
Final concentrations were 10^-5M to 10^-9M, with the last point being buffer only, no inhibitor. Fluorescein-NB-72 (Fl-NB-72) was prepared at 1 mM in DMF and stored at −20° C. It was diluted into plain FRET buffer to give 100 nM in the assay.
Incubations were done in duplicate on black Molecular Devices 96-well microtiter plates. […] To this were added 5 μL of the inhibitor dilutions, mixed and incubated, in the dark, at room temperature, for 1 h. […] Diffusion-enhanced FRET was determined by a parallel incubation without biotin-FOXM1 and subtracted as a background signal. Graphs were prepared using Graph Pad/Prism 4.

[5] = test system: breast cancer cell lines; assay: Proliferation of breast cancer cell lines (panel, line not specified); format: cell-based, human
Procedure: as §1, §2

[6] = test system: MDA-MB-453 breast cancer cells; assay: Cell proliferation, MDA-MB-453; format: cell-based, human; conditions: inhibition of cell proliferation
Procedure: (§3) Cell lines and cell culture methods MCF7 and other breast cancer cell lines were obtained from the ATCC and were maintained and cultured as described (Bergamaschi et al., Breast Cancer Res., 2014, 16:436; Madak-Erdogan et al., Mol. Syst. Biol., 2013, 9:676; Zhao et al., Cancer Res., 2017, 77:5602-13). DT22 cells were derived from a human triple negative invasive ductal breast carcinoma and were grown in culture as described (Drews-Elger et al., Breast cancer research and treatment, 2014, 144:503-17). All cells were tested for mycoplasma using Real-Time PCR Mycoplasma Detection Kit (Akron Biotech, Boca Raton, FL).
(§4) Cell proliferation assay WST-1 assay (Roche, Basel, Switzerland) was used to quantify cell viability as described (Gong et al., Mol. Cell Endocrinol., 2016, 437:190-200). Absorbance was measured at 450 nm using a VICTOR X5 PerkinElmer 2030 Multilabel Plate Reader. All assays were performed in triplicate.

[7] = test system: MCF10A cells; assay: Cell proliferation, MCF10A (low FOXM1); format: cell-based, human; conditions: 6 days
Procedure: as §3, §4

[8] = test system: FOXM1 target genes in MCF7 cells; assay: FOXM1 target gene expression by qRT-PCR, MCF7; format: cell-based, human; conditions: MCF7, 24 h, at IC50 concentration
Procedure: (§5) RNA was extracted from cells and expression of different genes was monitored by qRT-PCR. Assays were run in triplicate. Values are mean±SEM. *, p<0.05; **, p<0.01; ***, p<0.001. RNA isolation and real-time PCR Total RNA was isolated using TRIzol (Invitrogen) and reverse transcribed using […] reverse transcriptase (New England BioLabs). Real-time PCR was performed using SYBRgreen PCR Master Mix (Roche) as described (Bergamaschi et al., Breast Cancer Res., 2014, 16:436). Relative mRNA levels of genes were normalized to the housekeeping gene 36B4, and fold change calculated relative to the vehicle treated samples. Results are the average±SD from at least two independent experiments carried out in triplicate. Primer sequences for the genes studied were obtained from the Harvard Primer Bank. Sequences are available on their website.

[9] = test system: FOXM1 target genes in DT22 cells; assay: FOXM1 target gene expression by qRT-PCR, DT22; format: cell-based, human; conditions: DT22, 24 h, at IC50 concentration
Excerpt: as §5, with “Real-time PCR was performed using SYBRgreen PCR Master Mix (Roche) as described (Bergamaschi et al., Breast Cancer Res., 2014, 16:436).” left out

[10] = test system: DT22 triple negative human breast tumor xenografts; assay: DT22 triple negative breast tumor xenografts in NSG mice; format: in vivo, mouse
Procedure: In vivo breast cancer xenograft studies For examination of the growth of triple-negative DT22 breast tumors, intact female NOD/SCID-gamma (NSG) mice were used. DT-22 cells (1×10^6 cells/mouse) were injected s.c. into the right axial mammary gland. Mice received s.c. injection or oral gavage daily or every second or third day, as indicated, with vehicle or FOXM1 inhibitor compound, and tumor growth was monitored over time.

[11] = test system: MCF7 xenograft tumors; assay: MCF7 breast cancer xenografts in ovariectomized NSG mice; format: in vivo, mouse; conditions: 100 mg/kg s.c. daily
Procedure: For examination of the growth of ER-positive MCF7 xenograft tumors, female NSG mice were ovariectomized, and 2 weeks after ovariectomy, animals were supplemented with 0.36 mg E2-pellets (60-day release, Innovative Research of America) to support ER+ tumor growth. Cell suspensions of wild type MCF7 cells (1×10^6 cells/mouse) were injected subcutaneously (sc) in the right axial mammary gland and when tumors reached 100-150 mm^3 in size, mice were randomized and received compound or control vehicle (corn oil) by s.c. injection or oral gavage (PEG400/PVP/Tween/CMC as Veh) at the frequency indicated and tumor volume (length><width 2/2) was monitored over time.

[12] = Pharmacokinetic studies in mice after single s.c. or oral dose; conditions: mice
Procedure: For s.c. injection, each compound was dissolved in DMSO and then mixed with corn oil for a total injection volume of 100 μL (10% DSMO+90% corn oil) per mouse. For oral gavage, compounds were administered in a 200 μL formulation of 9/0.5/0.5/90 parts of PEG400/Tween80/Povidone/0.5% Carboxymethylcellulose. […] Compounds were quantified by LC-MS/MS at the University of Illinois Metabolomics Core Facility. The data were fitted to a non-compartment model.

| Compound | Kd [1] [nM] | IC50 [2] [nM] | IC50 [3] [nM] | Ki [4] [nM] | IC50 ([5]; cell line not specified or several lines, read-out: IC50 for inhibition of proliferation of breast cancer cell lines) [nM] | Reduced potency in suppression of cell proliferation (versus salts) ([5]; cells in culture) [fold] | IC50 [6] [nM] | Concentration for 50% suppression of proliferation in MCF10A versus cells with high and intermediate FOXM1 [7] | Expression of ATF3 (gene suppressed by FOXM1) [8] | Expression of FOXM1 stimulated target genes (FOXM1C, AURKB, CCNB1, PLK1) [8] | Expression of ATF3 (gene suppressed by FOXM1) [9] | Expression of FOXM1 stimulated target genes (FOXM1C, AURKB, CCNB1, PLK1) [9] | Tumor suppression at lower doses ([10]; 20 or 40 mg/kg (data not shown)) | Growth of DT22 tumor xenografts ([10]; daily s.c. or oral, 100 mg/kg) | Growth of MCF7 E2-treated xenograft tumors [11] | PK p.o. AUC0-48 ([12]; 40 mg/kg p.o.) [µM·h] | PK p.o. t1/2 ([12]; 40 mg/kg p.o.) [h] | PK s.c. AUC0-48 ([12]; 40 mg/kg s.c.) [µM·h] | PK s.c. t1/2 ([12]; 40 mg/kg s.c.) [h] |
| --- | --- | --- | --- | --- | --- | --- | --- | --- | --- | --- | --- | --- | --- | --- | --- | --- | --- | --- | --- |
| O=C(NCCCCCCOc1ccc(C(c2ccc(OCCCCCCN3CCCCCC3)cc2)=C2C3C[C@H]4C[C@@H](C3)C[C@H]2C4)cc1)c1ccc(-c2c3ccc(=O)cc-3oc3cc(O)ccc23)c(C(=O)O)c1 [Fl-NB-72, 5-((6-(4-((L′)-((5r,7r)-adamantan-2-ylidene)(4-((6-(azepan-1-yl)hexyl)oxy)phenyl)methyl)phenoxy)hexyl)carbamoyl)-2-(6-hydroxy-3-oxo-3H-xanthen-9-yl)benzoic acid] | 23 |  |  |  |  |  |  |  |  |  |  |  |  |  |  |  |  |  |  |
| Clc1ccc(C(=C2C3CC4CC(C3)CC2C4)c2ccc(OCCCCCCN3CCCC3)cc2)cc1 [NB-55, 1-(6-(4-((-((Z)-((5S,7S)-Adamantan-2-ylidene)(4-chlorophenyl)methyl)phenoxy)hexyl)pyrrolidine] |  | 3000 | 6000 | 230 | 2000 to 10000 | 5 | 3000 to 5000 | five times higher | increased | significantly reduced | increased | significantly reduced | only marginally effective | effective tumor suppression; also recorded: very effectively suppressed | reduces; also recorded: reduced the growth | 35.7 | 16.6 | 34.7 | 26.7 |
